US6800625B2, “Substituted 2,4-dihydro-pyrrolo[3,4-b]quinolin-9-one derivatives useful as phosphodiesterase inhibitors” (Janssen Pharmaceutica N.V., priority 2002, dated 2004)

Key:
[1] = biological target: PDEV (UniProt O76074); assay: Cyclic nucleotide phosphodiesterase (PDE) assay, measurement of inhibition of PDEV; format: biochemical, rabbit or human; settings: PDEV isolated from rabbit and human tissues; 1 μM cGMP, 10% DMSO, 30° C., 30 minutes
Experimental: Cyclic Nucleotide Phosphodiesterase (PDE) Assay
PDEV was isolated from rabbit and human tissues according to the protocol described by Boolell et al. (Boolell, M., Allen, M. J., Ballard, S. A., Ge[o-Attee, S., Muirhead, G. J., Naylor, A. M., Osterdoh, I. H., and Gingell, C) in International Journal of Impotence Research 1996 8, 47-52 with minor modifications.
Briefly, rabbit or human tissues were homogenized in an ice-cold buffer solution containing 20 mM HEPES (pH 7.2), 0.25M sucrose, 1 mM EDTA, and 1 mM phenylmethylsulphonyl fluoride (PMSF). The homogenates were centrifuged at 100,000 g for 60 minutes at 4° C. The supernatant was filtered through […] filter and loaded on a Pharmacia Mono Q anion exchange column (1 ml bed volume) that was equilibrated with 20 mM HEPES, 1 mM EDTA and 0.5 mM PMSF. After washing out unbound proteins, the enzymes were eluted with a linear gradient of 100-600 mM NaCl in the same buffer (35 to 50 ml total, depending on the tissue. Enzymes from the skeletal muscle, corpus cavernosum, retina, heart and platelet were eluted with 35, 40, 45, 50, and 50 ml respectively.) The column was run at a flow rate of 1 ml/min and 1 ml fractions were collected. […]
The assays were adapted to a 96-well format. […] An aliquot of 200 μl was taken and counted by liquid scintillation. PDE activity was expressed as pmol cyclic nucleotide hydrolyzed/min/ml of enzyme preparation. […]

[2] = tested on: men who suffer from ED; settings: cited from earlier work

Row | SMILES | IC50 [1] [nM] | improved sexual function, share of men ([2]; men who suffer from ED of psychogenic or organic etiology, clinical studies) | improved erections, share of patients ([2]; patients who had undergone a radical prostatectomy, versus 15% on placebo) [%] | undesirable side effects ([2]; use of sildenafil, result from non-selective effects on a variety of tissues)
1 | O=C1c2ccccc2NC23OC12CN(Cc1ccccc1)C3c1ccc2c(c1)OCO2 (centres unmarked) [Compound 1] | 545 |  |  | 
2 | O=c1c2ccccc2[nH]c2c(-c3ccc4c(c3)OCO4)n(Cc3ccccc3)cc12 [Compound 2] | 299 |  |  | 
3 | CCCc1nn(C)c2c(=O)[nH]c(-c3cc(S(=O)(=O)N4CCN(C)CC4)ccc3OCC)nc12 [sildenafil, 5-[2-ethoxy-5-(4-methylpiperazin-1-ylsulphonyl)phenyl]-1-methyl-3-n-propyl-6,7-dihydro-1H-pyrazolo[4,3-d]pyrimidin-7-one] |  | about 70% | 43 | headache, flushing and disrupted color vision
